Where “and” joins values, the source holds several entries; their conditions need not be identical. Equal values may be shown once. Read-outs that look alike come from different tables or passages of the source.
Columns and labels:
[1] = Concomitant plasma and brain levels of DDC and its congeners after oral dosing of rats; format: in vivo, male Sprague Dawley rats; details: rat; for Amounts of analogues still containing the N4-amide in plasma and brain / Plasma and brain levels of DDC relative to DDC dosing: oral dose equivalent to 25 mg DDC, 0.5 and 2 hours; for Levels of DDC in plasma and brain relative to a dose of DDC, 0.5 hour: 0.5 hour post dose; for Plasma and brain concentrations of DDC relative to a dose of DDC, 2 hours: 2 hours post dose
Procedure: (§1) Using an intragastric needle, sexually mature, male Sprague Dawley rats were given single 25 mg/kg oral doses of DDC or equimolar doses of DDC Congeners.
For concomitant plasma and brain level studies, each compound was administered to two animals. Animals were sacrificed by decapitation, one of each pair at 30 minutes and the other at 2 hours post dose. Blood was collected into heparinized cups and plasma was prepared. Samples of each plasma were ultrafiltered (Amicon Centrifree Micropartition Systems) prior to HPLC analysis. Brains were removed, weighed, homogenized in 2 volumes (2 ml/g) deionized water and centrifuged (12,000×g 4° C., 30 min). The resulting supernatants were filtered (0.22 μm filters) prior to HPLC analysis.
(§2) A dual-pump HPLC system was used to analyse samples of urine, feces, plasma and brain for DDC and its congeners and their metabolites. The solvent for pump A was 25 mM phosphoric acid, buffered to pH 7.2 with ammonium hydroxide. The solvent for pump B was 60% acetonitrile in solvent A. Samples were injected onto an Adsorbospher phenyl column (4.6×250 mm, 5 micron spherical packing) and eluted at a flow rate of 1 ml/minute using linear increases in solvent B from 0 to 15% over 15 minutes and from 15 to 100% over 21 minutes, with 5 minute purge (100% B) and 15 minute restore (0% B) period between injections. The absorbance of the column effluent was monitored at 273 and 254 nm. Concentrations of compounds were determined by comparing appropriate peak areas to standard curves obtained from analysis of aqueous solutions of authentic standards. Compounds were identified by comparing retention times and ratios of peak areas at 273 and 254 nm to those of authentic standards.

[2] = system: HIV; assay: Antiviral activity against HIV (method of Mitsuya et al.); format: cell-based; details: Human immunodeficiency virus 1; for minimal effective concentration: no % protection printed, read-out: Concentration at which found to have activity against HIV; for IC50: HIV
Procedure: The compounds of Examples 1-6 were tested for activity against HIV generally in accordance with the method described by Mitsuya et al, Proc. Nat. Acad. Sci, USA Vol 82, pp 7096-7100, October 1985 and found to have activity against HIV at the following concentrations: […]

[3] = Urinary and fecal excretion after oral dosing of rats; format: in vivo, male Sprague Dawley rats; details: rat
Procedure: as §1
For urinary and fecal excretion studies, each compound was administered to two animals, which were housed separately in metabolic cages and urine and feces were separated and collected during the 0-24, 24-48 and 48-72 hour intervals post dose. To prevent bacterial growth, sodium azide was placed in the urine collection vessel so that the final concentration, after 24 hours of urine collection, would be about 0.02%. Feces were weighed, homogenized in 9 volumes (9 ml/g) deionized water and centrifuged (12,000×g, 4° C., 30 min). Prior to high-performance liquid chromatographic (HPLC) analysis for drug and metabolite content, samples of the fecal homogenate supernatants and urines were filtered (0.22 μm filters).
as §2

[4] = system: HIV; details: known from EP 0216511; cited from earlier work
[5] = in vivo, po, 25 mg/kg, 1440 min

**Q.** Which results are given for `Nc1ccn([C@H]2CC[C@@H](CO)O2)c(=O)n1` [DDC, 2',3'-Dideoxycytidine, reference compound]?
**A.** Absorption and hydrolysis (plasma level data) ([1]; oral): absorption of DDC although incomplete, may be more prolonged; inhibition at 16 µM ([2]; 16 μM, read-out: % Protection): 99%; dose excreted at 24 h ([3]; feces, po, 25 mg/kg, rat 1, oral 25 mg/kg, compound detected: DDC, read-out: Percent Dose Excreted as DDC, 0-24 hr Feces): 12%; dose excreted ([3]; feces, po, 25 mg/kg, two rats, oral 25 mg/kg, feces, DDC, read-out: Average fecal excretion of parent compound): 28.1%; Average fecal excretion of 2',3'-dideoxyuridine ([3]; in vivo, po, 25 mg/kg): 1.9 % of the dose; Compound Detected, 24-72 hr Feces ([3]; in vivo, po, 25 mg/kg): none; Gastrointestinal absorption ([3]; in vivo, po, 25 mg/kg): limited gastrointestinal absorption; Percent Dose Excreted as ddU, 0-24 hr Feces [3, 5]: 1.1 Percent Dose; Percent Dose Excreted as ddU, 0-24 hr Urine (second entry so headed) [3, 5]: 2.6 Percent Dose; Percent Dose Excreted as DDC, 0-24 hr Urine ([3]; single oral dose 25 mg/kg DDC or equimolar, individual rats, compound detected: DDC, 25 mg/kg, 1440 min): 31.6 Percent Dose; Percent Dose Excreted as DDC, 24-72 hr Urine ([3]; single oral dose 25 mg/kg DDC or equimolar, individual rats, compound detected: DDC, 25 mg/kg, 4320 min): 6.23 Percent Dose and 1.5 Percent Dose; dose excreted at 24 h ([3]; urine, po, 25 mg/kg, rat 2, oral 25 mg/kg DDC, compound detected: DDC, read-out: Percent Dose Excreted as DDC, 0-24 hr Urine (second entry so headed)): 32.2%; dose excreted at 24 h ([3]; urine, po, 25 mg/kg, single oral dose 25 mg/kg DDC or equimolar, individual rats, compound detected: DDC, read-out: Percent Dose Excreted as DDC, 0-24 hr Urine): 46.6%; dose excreted at 72 h ([3]; urine, po, 25 mg/kg, two rats, oral 25 mg/kg DDC or equimolar, urine 72 hours, read-out: Average urinary excretion as DDC): 43%; Anti-HIV activity [4]: potent anti-HIV activity

**Q.** For `CCC(=O)Nc1ccn([C@H]2CC[C@@H](COC(=O)CC)O2)c(=O)n1` [Example 1, 2',3'-Dideoxy-N^4, 5'-O-dipropionylcytidine], which “Amounts of analogues still containing the N4-amide in plasma and brain” value [1] is on record?
**A.** Much higher amounts

**Q.** What about the “Plasma and brain levels of DDC relative to DDC dosing” value [1] of the same compound?
**A.** lower than what was observed after dosing with DDC

**Q.** And the minimal effective concentration [2]?
**A.** 25 µM

**Q.** Which IC50 [2] does the source give for `CCC(=O)Nc1ccn([C@H]2CC[C@@H](CO)O2)c(=O)n1` [Example 2, 2',3'-Dideoxy-N^4-propionylcytidine] here?
**A.** 36 µM

**Q.** What does the source list for `CCC(=O)OC[C@@H]1CC[C@H](n2ccc(N)nc2=O)O1` [Example 3, 2',3'-Dideoxy-5'-O-propionylcytidine]?
**A.** Levels of DDC in plasma and brain relative to a dose of DDC, 0.5 hour ([1]; oral): higher levels of DDC in the plasma and brain; Plasma and brain concentrations of DDC relative to a dose of DDC, 2 hours ([1]; oral): lower than those observed after a dose of DDC; IC50 [2]: 1.6 µM

**Q.** For `CC(C)(C)C(=O)Nc1ccn([C@H]2CC[C@@H](COC(=O)C(C)(C)C)O2)c(=O)n1` [Example 4, 2',3'-dideoxy-N^4,5'-O-dipivaloylcytidine], which “Amounts of analogues still containing the N4-amide in plasma and brain” value [1] is on record?
**A.** Much higher amounts

**Q.** What about the “Plasma and brain levels of DDC relative to DDC dosing” value [1] of the same compound?
**A.** lower than what was observed after dosing with DDC

**Q.** And the minimal effective concentration [2]?
**A.** 25 µM

**Q.** With `CC(C)(C)C(=O)Nc1ccn([C@H]2CC[C@@H](CO)O2)c(=O)n1` [Example 5, 2',3'-dideoxy-N^4-pivaloylcytidine] as the compound, how does the “Amounts of analogues still containing the N4-amide in plasma and brain” value [1] read?
**A.** Much higher amounts

**Q.** What about the “Plasma and brain levels of DDC relative to DDC dosing” value [1] of the same compound?
**A.** lower than what was observed after dosing with DDC

**Q.** What about the inhibition at 100 µM ([2]; 100 μM, read-out: % Protection) of the same compound?
**A.** 42%

**Q.** Which “Levels of DDC in plasma and brain relative to a dose of DDC, 0.5 hour” value ([1]; oral) does the source give for `CC(C)(C)C(=O)OC[C@@H]1CC[C@H](n2ccc(N)nc2=O)O1` [Example 6, 2',3'-Dideoxy-5'-O-pivaloylcytidine] here?
**A.** higher levels of DDC in the plasma and brain

**Q.** And the “Plasma and brain concentrations of DDC relative to a dose of DDC, 2 hours” value ([1]; oral)?
**A.** lower than those observed after a dose of DDC

**Q.** And the inhibition at 6.4 µM ([2]; 6.4 μM, read-out: % Protection)?
**A.** 88%

**Q.** What about the “Increase of oral bioavailability of DDC” value ([3]; in vivo, po) of the same compound?
**A.** 2.5 fold
